Data on 22 compounds can be found in patent US4250176A, “Piperazine derivatives” (priority 1979, dated 1981).

The structures appear in SMILES notation. ≈ marks a conversion by molar mass, not a printed value. Where a name gives a salt, the structure may show the parent alone. Read-outs that look alike come from different tables or passages of the source.

Test [1] relates to Guinea pigs sensitized to ovalbumin (anaphylactic shock). Kind of test: Anaphylaxis in guinea pigs: protection against death after ovalbumin challenge (survival). The class given is in vivo, guinea pig. Conditions: Cavia porcellus, estimated ED50, oral, protection against death after i.v. 0.6 mg ovalbumin, read-out: Anaphylaxis in guinea pigs oral effective dose in mg/kg: Survival. The procedure: The anti-anaphylactic and antihistaminic effects of the subject compounds (I) and salts thereof are studied "in vivo" in guinea pigs.
Guinea pigs, weighing between 400 and 500 g, are sensitized to ovalbumin by subplantar (s.p.) injection of 0.05 ml of antiserum in the left hind paw. The animals are then starved and orally treated, 24 hours after the sensitization, with saline (=control animals) or a particular dose of the compound under investigation.
The histamine injection (at a dose of 50 μg) was given s.p. in the right hind paw 2 hours after the oral pretreatment with the compound. The diameters of both hind paws are first measured before the histamine injection is given and again 10 minutes thereafter. The animals are challenged intravenously with 0.6 mg of ovalbumin 30 minutes after the histamine injection. All control animals develop typical primary anaphylactic shock symptoms (coughing, difficult breathing, convulsions) and 85% of these control animals die within 15 minutes after the ovalbumin injection. Protection against death is used as the criterion for possible drug effects and the estimated ED50 -value, i.e. the oral dose whereby the protection is observed in 50% of the guinea pigs, is listed in the tables below.

For test [2], the system named is Guinea-pig ileum strips, histamine-induced contraction. Put plainly: Anti-histamine activity in "vitro": histamine-induced spasms of guinea-pig ileum strips. The class given is cell-based. Conditions: Cavia porcellus, 5 min, histamine 0.5 mg/liter, 5 minutes incubation, concentration giving significant inhibition (50%) of the contraction. On the procedure: The histamine--(0.5 mg/liter) induced spasms are recorded Kymographically with an isotonic lever giving a 5-fold magnification.

The subject of test [3] is histamine paw oedema in guinea pigs. Put plainly: Histamine paw oedema in guinea pigs. Conditions: Cavia porcellus, oral dose giving paw reaction below 10 units 10 minutes after 50 μg histamine s.p., 2 hours after dosing, read-out: Anaphylaxis in guinea pigs oral effective dose in mg/kg: Histamine oedema. Type of test: in vivo, guinea pig. On the procedure:
Guinea pigs, weighing between 400 and 500 g, are sensitized to ovalbumin by subplantar (s.p.) injection of 0.05 ml of antiserum in the left hind paw. The animals are then starved and orally treated, 24 hours after the sensitization, with saline (=control animals) or a particular dose of the compound under investigation. The histamine injection (at a dose of 50 μg) was given s.p. in the right hind paw 2 hours after the oral pretreatment with the compound.

[4] abbreviates: Table I-a, read-out: Histamine in "vitro" (ileum) effective conc.
The mark [5] stands for this setting: Table I-d, read-out: Histamine in "vitro" (ileum) effective dose.

For `O=c1[nH]c2ccccc2n1CCCN1CCN(C(c2ccccc2)c2ccccc2F)CC1` (stereo not drawn) [1-[3-{4-[(2-fluorophenyl)phenylmethyl]-1-piperazinyl}propyl]-1,3-dihydro-2H-benzimidazol-2-one], the ED50 in test [1] (Table I-a) was less than 2.5 mg/kg. Besides, the IC50 in test [2] (setting [4]) came out at 0.02 µg/mL (≈ 0.045 µM). Further, the minimal effective dose in test [3] (Table I-a) is less than 2.5 mg/kg.
Turning to `O=c1[nH]c2ccccc2n1CCCN1CCN(C(c2ccccc2)c2ccc(Br)cc2)CC1` (stereo not drawn) [1-[3-{4-[(4-bromophenyl)phenylmethyl]-1-piperazinyl}propyl]-1,3-dihydro-2H-benzimidazol-2-one], in test [1] (Table I-a), the ED50 was less than 2.5 mg/kg. Moreover, the IC50 in test [2] (setting [4]) turned out to be 0.16 µg/mL (≈ 0.317 µM). Besides, the minimal effective dose in test [3] (Table I-a) is less than 2.5 mg/kg.
On to `Cc1ccc(C(c2ccc(F)cc2)N2CCN(CCCn3c(=O)[nH]c4ccccc43)CC2)cc1` (stereo not drawn) [1-[3-{4-[(4-fluorophenyl)-(4-methylphenyl)methyl]-1-piperazinyl}propyl]-1,3-dihydro-2H-benzimidazol-2-one], for which the ED50 in test [1] (Table I-a) was less than 2.5 mg/kg. Moreover, the IC50 in test [2] (setting [4]) stood at 0.16 µg/mL (≈ 0.349 µM). Further, in test [3] (Table I-a), the minimal effective dose was less than 2.5 mg/kg.
In the case of `O=c1[nH]c2ccccc2n1CCCN1CCN(C(c2ccc(Cl)cc2)c2ccc(Cl)cc2)CC1` [1-[3-{4-[bis(4-chlorophenyl)methyl]-1-piperazinyl}propyl]-1,3-dihydro-2H-benzimidazol-2-one], the ED50 in test [1] (Table I-a) was less than 2.5 mg/kg. The IC50 in test [2] (setting [4]) worked out at 0.16 µg/mL (≈ 0.323 µM). Also, the minimal effective dose in test [3] (Table I-a) is less than 2.5 mg/kg.
Take `O=c1[nH]c2ccccc2n1CCCN1CCC(OC(c2ccc(F)cc2)c2ccc(F)cc2)CC1` [1-[3-{4-[bis(4-fluorophenyl)methoxy]-1-piperidinyl}propyl]-1,3-dihydro-2H-benzimidazol-2-one hydrochloride.hemihydrate]: the ED50 in test [1] (Table I-d) is 0.63 mg/kg. In addition, the IC50 in test [2] (setting [5]) turned out to be 0.0025 µg/mL. In test [3] (Table I-d), the minimal effective dose was 0.63 mg/kg.
On to `CC(CN1CCN(C(c2ccc(F)cc2)c2ccc(F)cc2)CC1)Cn1c(=O)[nH]c2ccccc21` (stereo not drawn) [1-[3-{4-[bis(4-fluorophenyl)methyl]-1-piperazinyl}-2-methylpropyl]-1,3-dihydro-2H-benzimidazol-2-one], for which the ED50 in test [1] (Table I-a) is 1.25 mg/kg. Further, the IC50 in test [2] (setting [4]) is 0.02 µg/mL (≈ 0.042 µM). In addition, the minimal effective dose in test [3] (Table I-a) was 1.25 mg/kg.
With `CC(CN1CCN(C(c2ccc(F)cc2)c2ccc(F)cc2)CC1)Cn1cnc2ccccc21` (stereo not drawn) [1-[3-{4-[bis(4-fluorophenyl)methyl]-1-piperazinyl}-2-methylpropyl]-1H-benzimidazole trihydrochloride.hemihydrate], in test [1] (Table I-b), the ED50 is 0.63 mg/kg. For the same compound, the IC50 in test [2] (Table I-b, read-out: Histamine in "vitro" (ileum) effective conc.) is 0.02 µg/mL. The minimal effective dose in test [3] (Table I-b) turned out to be 1.25 mg/kg.
Regarding `O=c1[nH]c2ccccc2n1CCCN1CCN(C(c2ccc(F)cc2)c2ccc(F)cc2)CC1` [1-[3-{4-[bis(4-fluorophenyl)methyl]-1-piperazinyl}propyl]-1,3-dihydro-2H-benzimidazol-2-one], in test [1] (Table I-a), the ED50 was 0.31 mg/kg. Moreover, the IC50 in test [2] (setting [4]) came out at 0.01 µg/mL (≈ 0.0216 µM). Besides, the minimal effective dose in test [3] (Table I-a) was 0.16 mg/kg.
Regarding `O=c1[nH]c2cc(Cl)ccc2n1CCCN1CCN(C(c2ccc(F)cc2)c2ccc(F)cc2)CC1` [1-[3-{4-[bis(4-fluorophenyl)methyl]-1-piperazinyl}propyl]-5-chloro-1,3-dihydro-2H-benzimidazol-2-one], in test [1] (Table I-a), the ED50 was 1.25 mg/kg. Also, the IC50 in test [2] (setting [4]) was determined as 0.04 µg/mL (≈ 0.0805 µM). In addition, in test [3] (Table I-a), the minimal effective dose stood at 1.25 mg/kg.
Consider `O.O=c1[nH]c2ccc(Cl)cc2n1CCCN1CCN(C(c2ccc(F)cc2)c2ccc(F)cc2)CC1` [1-[3-{4-[bis(4-fluorophenyl)methyl]-1-piperazinyl}propyl]-6-chloro-1,3-dihydro-2H-benzimidazol-2-one hydrate], for which, in test [1] (Table I-a), the ED50 is 0.63 mg/kg. The IC50 in test [2] (setting [4]) was found to be 0.02 µg/mL. Also, in test [3] (Table I-a), the minimal effective dose is 1.25 mg/kg.
On the same counts, the results for `O=c1[nH]c2ccccc2n1CCCN1CCN(C(c2ccccc2)c2cccc(Cl)c2)CC1` (stereo not drawn) [1-[3-{4-[α-(3-chlorophenyl-α-phenylmethyl]-1-piperazinyl}propyl]-1,3-dihydro-2H-benzimidazol-2-one] are 0.63 mg/kg, 0.01 µg/mL (≈ 0.0217 µM) and 1.25 mg/kg.
The matching figures for `O=c1[nH]c2ccccc2n1CCCN1CCN(C(c2ccc(Cl)cc2)c2ccccc2F)CC1` (stereo not drawn) [1-[3-{4-[α-(4-chlorophenyl)-α-(2-fluorophenyl)]-1-piperazinyl}propyl]-1,3-dihydro-2H-benzimidazol-2-one]: 0.31 mg/kg, 0.02 µg/mL (≈ 0.0418 µM) and 1.25 mg/kg.
As for `O=c1[nH]c2ccccc2n1CCCN1CCN(C(c2ccccc2)c2ccc(Cl)cc2)CC1` (stereo not drawn) [1-[3-{4-[α-(4-chlorophenyl)-α-phenylmethyl]-1-piperazinyl}propyl]-1,3-dihydro-2H-benzimidazol-2-one], the ED50 in test [1] (Table I-a) is 1.25 mg/kg. Further, in test [2] (setting [4]), the IC50 is 0.01 µg/mL (≈ 0.0217 µM). Besides, in test [3] (Table I-a), the minimal effective dose was 0.63 mg/kg.
For `O=c1[nH]c2ccccc2n1CCCN1CCN(C(c2ccccc2)c2ccc(F)cc2)CC1` (stereo not drawn) [1-[3-{4-[α-(4-fluorophenyl)-α-phenylmethyl]-1-piperazinyl}propyl]-1,3-dihydro-2H-benzimidazol-2-one], the ED50 in test [1] (Table I-a) is 0.31 mg/kg. For the same compound, the IC50 in test [2] (setting [4]) worked out at 0.01 µg/mL (≈ 0.0225 µM). The minimal effective dose in test [3] (Table I-a) worked out at 0.31 mg/kg.
Turning to `O=c1[nH]c2ccccc2n1CCCCN1CCN(C(c2ccc(F)cc2)c2ccc(F)cc2)CC1` [1-[4-{4-[bis(4-fluorophenyl)methyl]-1-piperazinyl}-butyl]-1,3-dihydro-2H-benzimidazol-2-one dihydrochloride.hydrate.hemiethanolate], the ED50 in test [1] (Table I-a) is 0.16 mg/kg. Also, the IC50 in test [2] (setting [4]) worked out at 0.01 µg/mL. In addition, the minimal effective dose in test [3] (Table I-a) is 0.31 mg/kg.
On the same counts, the results for `O=c1[nH]c2ccccc2n1CCCCCN1CCN(C(c2ccc(F)cc2)c2ccc(F)cc2)CC1` [1-[5-{4-[bis(4-fluorophenyl)-methyl]-1-piperazinyl}pentyl]-1,3-dihydro-2H-benzimidazol-2-one dihydrochloride.hydrate] are 1.25 mg/kg, 0.01 µg/mL and 2.5 mg/kg.
`CC(=O)n1c(=O)n(CCCN2CCN(C(c3ccccc3)c3ccccc3)CC2)c2ccccc21` [1-acetyl-3-{3-[4-(diphenylmethyl)-1-piperazinyl]propyl}-1,3-dihydro-2H-benzimidazol-2-one]: the ED50 in test [1] (Table I-a) is 0.1 mg/kg. Moreover, in test [2] (setting [4]), the IC50 is 0.005 µg/mL (≈ 0.0107 µM). Also, the minimal effective dose in test [3] (Table I-a) is 0.31 mg/kg.
For `Cl.O=c1[nH]c2ccccc2n1CCN1CCC(OC(c2ccccc2)c2ccccc2)CC1` [1-{2-[4-(diphenylmethoxy)-1-piperidinyl]ethyl}-1,3-dihydro-2H-benzimidazol-2-one hydrochloride], the ED50 in test [1] (Table I-d) was 0.31 mg/kg. Besides, the IC50 in test [2] (setting [5]) came out at 0.0025 µg/mL. Also, the minimal effective dose in test [3] (Table I-d) came out at 0.16 mg/kg.
Turning to `O=c1[nH]c2cc(C(F)(F)F)ccc2n1CCN1CCN(C(c2ccccc2)c2ccccc2)CC1` [1-{2-[4-(diphenylmethyl)-1-piperazinyl]ethyl}-1,3-dihydro-5-(trifluoromethyl)-2H-benzimidazol-2-one], the ED50 in test [1] (Table I-a) is 0.31 mg/kg. In test [2] (setting [4]), the IC50 was found to be 0.02 µg/mL (≈ 0.0416 µM). Moreover, the minimal effective dose in test [3] (Table I-a) turned out to be 1.25 mg/kg.
On to `Cc1ccc2c(c1)[nH]c(=O)n2CCN1CCN(C(c2ccccc2)c2ccccc2)CC1` [1-{2-[4-(diphenylmethyl)-1-piperazinyl]ethyl}-1,3-dihydro-5-methyl-2H-benzimidazol-2-one], for which the ED50 in test [1] (Table I-a) was 1.25 mg/kg. For the same compound, in test [2] (setting [4]), the IC50 was found to be 0.01 µg/mL (≈ 0.0234 µM). Further, the minimal effective dose in test [3] (Table I-a) was determined as 1.25 mg/kg.
`O=c1[nH]c2ccccc2n1CCCN1CCC(OC(c2ccccc2)c2ccccc2)CC1` [1-{3-[4-(diphenylmethoxy)-1-piperidinyl]-propyl}-1,3-dihydro-2H-benzimidazol-2-one]: in test [1] (Table I-d), the ED50 is 0.63 mg/kg. For the same compound, in test [2] (setting [5]), the IC50 was determined as 0.0025 µg/mL (≈ 0.00566 µM). In addition, in test [3] (Table I-d), the minimal effective dose came to 1.25 mg/kg.
The matching figures for `c1ccc(C(OC2CCN(CCCn3cnc4ccccc43)CC2)c2ccccc2)cc1` [1-{3-[4-(diphenylmethoxy)-1-piperidinyl]propyl}-1H-benzimidazole]: 0.16 mg/kg, 0.0025 µg/mL (≈ 0.00587 µM) and 0.16 mg/kg.
